Laboratory results: patent US9309224B2 (Deciphera Pharmaceuticals, LLC, priority 2013, dated 2016)

Assays:
[1] = target: T1, unphosphorylated c-FMS kinase (uFMS, Seq. ID no. 1) (Homo sapiens, UniProt P07333); assay: uFMS kinase assay (pyruvate kinase/lactate dehydrogenase coupled); format: biochemical; settings: ATP 500 μM
T1 construct: purchased Millipore
T1 sequence (P07333 538-972): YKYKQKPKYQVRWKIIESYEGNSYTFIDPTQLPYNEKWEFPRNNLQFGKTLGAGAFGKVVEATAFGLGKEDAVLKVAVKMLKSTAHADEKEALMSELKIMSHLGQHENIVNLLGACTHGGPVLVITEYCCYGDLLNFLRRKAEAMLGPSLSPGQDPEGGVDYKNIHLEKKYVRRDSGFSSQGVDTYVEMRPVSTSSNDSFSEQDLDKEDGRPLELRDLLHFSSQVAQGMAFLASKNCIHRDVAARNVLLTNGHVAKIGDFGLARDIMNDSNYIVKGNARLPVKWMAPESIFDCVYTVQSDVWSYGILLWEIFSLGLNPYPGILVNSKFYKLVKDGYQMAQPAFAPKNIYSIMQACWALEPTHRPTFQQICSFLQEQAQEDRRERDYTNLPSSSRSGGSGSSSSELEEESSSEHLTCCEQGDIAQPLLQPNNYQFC

[2] = target: T2, unphosphorylated c-KIT kinase (uKIT, Seq. ID no. 2) (Homo sapiens, UniProt P10721); assay: uKit kinase assay (pyruvate kinase/lactate dehydrogenase coupled); format: biochemical; settings: ATP 2000 μM
T2 construct: uKit with N-terminal GST fusion used for
T2 sequence (P10721 with tags, fused parts or gaps): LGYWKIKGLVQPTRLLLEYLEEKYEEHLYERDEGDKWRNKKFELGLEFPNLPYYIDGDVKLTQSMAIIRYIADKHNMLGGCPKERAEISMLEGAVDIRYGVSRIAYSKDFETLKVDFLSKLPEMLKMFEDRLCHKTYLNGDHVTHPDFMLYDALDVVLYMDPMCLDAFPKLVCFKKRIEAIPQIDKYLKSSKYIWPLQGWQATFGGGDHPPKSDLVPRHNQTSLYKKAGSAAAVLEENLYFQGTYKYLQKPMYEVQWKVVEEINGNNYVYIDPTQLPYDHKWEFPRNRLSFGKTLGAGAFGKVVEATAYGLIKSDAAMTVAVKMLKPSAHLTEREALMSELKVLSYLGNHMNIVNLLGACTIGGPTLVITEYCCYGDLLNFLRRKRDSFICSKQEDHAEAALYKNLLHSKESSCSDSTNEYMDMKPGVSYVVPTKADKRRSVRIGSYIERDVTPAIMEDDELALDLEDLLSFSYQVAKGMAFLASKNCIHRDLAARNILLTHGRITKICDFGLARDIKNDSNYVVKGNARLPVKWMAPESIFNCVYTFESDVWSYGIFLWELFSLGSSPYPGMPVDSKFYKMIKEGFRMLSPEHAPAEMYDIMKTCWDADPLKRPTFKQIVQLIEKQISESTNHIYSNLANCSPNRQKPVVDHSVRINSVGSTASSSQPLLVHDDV
Experimental: In this assay, the oxidation of NADH (thus the decrease at A340 nm) was continuously monitored spectrophometrically. […] The inhibition reaction was started by mixing serial diluted test compound with the above reaction mixture. The absorption at 340 nm was monitored continuously for 4 hours at 30° C. on Synergy 2 plate reader (BioTech).

[3] = target: T3, unphosphorylated PDGFRβ kinase (uPDGFRβ, Seq. ID No. 3) (Homo sapiens, UniProt P09619); assay: Unphosphorylated PDGFRβ kinase assay (pyruvate kinase/lactate dehydrogenase coupled); format: biochemical; settings: ATP 500 μM
T3 construct: purchased DeCode
T3 sequence (P09619 557-1105): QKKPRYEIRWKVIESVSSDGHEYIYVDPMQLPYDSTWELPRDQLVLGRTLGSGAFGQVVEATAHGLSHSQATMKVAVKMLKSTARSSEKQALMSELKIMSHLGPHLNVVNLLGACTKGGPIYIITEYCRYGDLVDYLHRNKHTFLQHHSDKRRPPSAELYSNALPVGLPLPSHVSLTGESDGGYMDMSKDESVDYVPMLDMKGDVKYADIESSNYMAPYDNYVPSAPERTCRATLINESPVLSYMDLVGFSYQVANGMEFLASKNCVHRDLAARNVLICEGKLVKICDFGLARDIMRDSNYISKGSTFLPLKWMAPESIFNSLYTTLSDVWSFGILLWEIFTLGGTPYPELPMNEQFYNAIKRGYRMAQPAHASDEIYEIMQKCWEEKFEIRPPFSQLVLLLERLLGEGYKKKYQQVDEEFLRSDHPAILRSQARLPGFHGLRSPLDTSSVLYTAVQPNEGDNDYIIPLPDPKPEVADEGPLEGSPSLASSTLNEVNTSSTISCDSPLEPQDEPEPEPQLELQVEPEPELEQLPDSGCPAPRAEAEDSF
From the text: Unphosyhorylated PDGFRβ (uPDGFRβkinase (Seq. ID No. 3) assay

M-NFS-60 cells = assay: M-NFS-60 cell proliferation assay; format: cell-based; settings: 67 h incubation, resazurin
Experimental: M-NFS-60 Cell Proliferation Assay A serial dilution of test compound was dispensed into a 384-well black clear bottom plate (Corning, Corning, N.Y.). Two thousand five hundred cells were added per well in 50 μL complete growth medium. […] IC50 values were calculated from a series of percent inhibition values determined at a range of inhibitor concentrations using software routines as implemented in the GraphPad Prism software package.

osteoclast precursors = assay: Osteoclast tartrate-resistant acid phosphatase assay; format: cell-based; settings: Osteoclast; 7-14 days, RANKL and M-CSF
Experimental: Diluted compound was transferred to a 384-well black clear bottom plate. Two-thousand five hundred osteoclast precursors (Lonza, Walkersville, Md.) were added per well in growth media containing Receptor Activator of Nuclear Factor Kappa-beta ligand (RANKL) and M-CSF (R&D Systems, Minneapolis, Minn.). Plates were incubated for 7-14 days at 37 degrees Celsius, 5% CO2, and 95% humidity to allow differentiation of osteoclast precursors. […] Tartrate-resistant acid phosphatase activity in the supernatant samples was determined using an acid phosphatase assay kit (Sigma, St. Louis, Mo.). Absorbance was measured at 550 nm using a plate reader. Data was analyzed using Prism software (Graphpad, San Diego, Calif.) to calculate IC50 values.

| Structure (SMILES) | IC50 [1] [nM] | IC50 [2] [nM] | IC50 [3] [nM] | IC50 (M-NFS-60 cells) [nM] | IC50 (osteoclast precursors) [nM] |
| --- | --- | --- | --- | --- | --- |
| CN(C)C(=O)Nc1cc(Oc2ccc(NC(=O)NC(=O)C3CCOCC3)nc2)ccn1 [Example 51, N-((5-((2-(3,3-dimethylureido)pyridin-4-yl)oxy)pyridin-2-yl)carbamoyl)tetrahydro-2H-pyran-4-carboxamide] | < 10 | 100 to 1000 | 10 to 100 | 10 to 100 | 10 to 100 |
| CC(=O)Nc1cc(Oc2ccc(NC(=O)NC(=O)C3CC4CCC3O4)nc2)ccn1 (stereo not shown) [Example 28, N-((5-((2-acetamidopyridin-4-yl)oxy)pyridin-2-yl)carbamoyl)-7-oxabicyclo[2.2.1]heptane-2-carboxamide] | < 10 | 100 to 1000 | – | 10 to 100 | < 10 |
| CC(=O)Nc1cc(Oc2ccc(NC(=O)NC(=O)C3(C)CCC3)nc2C)ccn1 [Example 43, N-((5-((2-acetamidopyridin-4-yl)oxy)-6-methylpyridin-2-yl)carbamoyl)-1-methylcyclobutanecarboxamide] | < 10 | 100 to 1000 | 100 to 1000 | < 10 | < 10 |
| CCC(=O)NC(=O)Nc1ccc(Oc2ccnc(NC(C)=O)c2)cn1 [Example 16, N-((5-((2-acetamidopyridin-4-yl)oxy)pyridin-2-yl)carbamoyl)propionamide] | 100 to 1000 | > 1000 | > 1000 | 100 to 1000 | 100 to 1000 |
| CN1CCC(NC(=O)c2cc(Oc3ccc(NC(=O)NC(=O)C(C)(C)C)nc3)ccn2)CC1 [Example 75, N-(1-methylpiperidin-4-yl)-4-((6-(3-pivaloylureido)pyridin-3-yl)oxy)picolinamide] | 100 to 1000 | > 1000 | > 1000 | > 1000 | 10 to 100 |
| COC(C)(C)C(=O)NC(=O)Nc1ccc(Oc2ccnc(NC(=O)C3CCN(C)CC3)c2)cn1 [Example 40, N-(4-((6-(3-(2-methoxy-2-methylpropanoyl)ureido)pyridin-3-yl)oxy)pyridin-2-yl)-1-methylpiperidine-4-carboxamide] | 10 to 100 | > 1000 | – | 100 to 1000 | 10 to 100 |
| CC(=O)Nc1cc(Oc2ccc(NC(=O)NC(=O)C3CC4CCC3O4)nc2C)ccn1 (stereo not shown) [Example 29, N-((5-((2-acetamidopyridin-4-yl)oxy)-6-methylpyridin-2-yl)carbamoyl)-7-oxabicyclo[2.2.1]heptane-2-carboxamide] | 10 to 100 | > 1000 | – | 10 to 100 | 10 to 100 |
| CC(C)C(=O)NC(=O)Nc1ccc(Oc2ccnc(NC(=O)C3CCN(C)CC3)c2)cn1 [Example 57, N-(4-((6-(3-isobutyrylureido)pyridin-3-yl)oxy)pyridin-2-yl)-1-methylpiperidine-4-carboxamide] | 100 to 1000 | > 1000 | > 1000 | > 1000 | 100 to 1000 |
| CC(=O)Nc1cc(Oc2ccc(NC(=O)NC(=O)C3CCOC3)nc2C)ccn1 (stereo not shown) [Example 14, N-((5-((2-acetamidopyridin-4-yl)oxy)-6-methylpyridin-2-yl)carbamoyl)tetrahydrofuran-3-carboxamide] | 100 to 1000 | > 1000 | > 1000 | 10 to 100 | 100 to 1000 |
| Cn1cc(C(=O)Nc2cc(Oc3ccc(NC(=O)NC(=O)C(C)(C)C)nc3)ccn2)cn1 [Example 52, 1-methyl-N-(4-((6-(3-pivaloylureido)pyridin-3-yl)oxy)pyridin-2-yl)-1H-pyrazole-4-carboxamide] | < 10 | 10 to 100 | 100 to 1000 | < 10 | < 10 |
| CC(=O)Nc1cc(Oc2ccc(NC(=O)NC(=O)CC3CCCCC3)nc2)ccn1 [Example 4, N-((5-((2-acetamidopyridin-4-yl)oxy)pyridin-2-yl)carbamoyl)-2-cyclohexylacetamide] | < 10 | 10 to 100 | – | < 10 | < 10 |
| CC(=O)Nc1cc(Oc2ccc(NC(=O)NC(=O)C3(C)CCC3)nc2)ccn1 [Example 44, N-((5-((2-acetamidopyridin-4-yl)oxy)pyridin-2-yl)carbamoyl)-1-methylcyclobutanecarboxamide] | < 10 | 100 to 1000 | 100 to 1000 | < 10 | < 10 |
| CC(C)NC(=O)c1cc(Oc2ccc(NC(=O)NC(=O)C(C)(C)C)nc2)ccn1 [Example 73, N-isopropyl-4-((6-(3-pivaloylureido)pyridin-3-yl)oxy)picolinamide] | 100 to 1000 | > 1000 | > 1000 | > 1000 | 10 to 100 |
| CCC(=O)Nc1cc(Oc2ccc(NC(=O)NC(=O)C3CCOCC3)nc2)ccn1 [Example 32, N-((5-((2-propionamidopyridin-4-yl)oxy)pyridin-2-yl)carbamoyl)tetrahydro-2H-pyran-4-carboxamide] | 10 to 100 | > 1000 | 10 to 100 | 10 to 100 | 10 to 100 |
| CN1CCC(C(=O)Nc2cc(Oc3ccc(NC(=O)NC(=O)C(C)(C)C)nc3)ccn2)C1 (stereo not shown) [Example 55, 1-methyl-N-(4-((6-(3-pivaloylureido)pyridin-3-yl)oxy)pyridin-2-yl)pyrrolidine-3-carboxamide] | 10 to 100 | > 1000 | > 1000 | > 1000 | 100 to 1000 |
| CCC(=O)Nc1cc(Oc2ccc(NC(=O)NC(=O)C3(OC)CC3)nc2)ccn1 [Example 39, 1-methoxy-N-((5-((2-propionamidopyridin-4-yl)oxy)pyridin-2-yl)carbamoyl)cyclopropanecarboxamide] | 10 to 100 | > 1000 | > 1000 | 10 to 100 | 10 to 100 |
| COC1(C(=O)NC(=O)Nc2ccc(Oc3ccnc(NC(=O)C4CCN(C)CC4)c3)cn2)CC1 [Example 49, N-(4-((6-(3-(1-methoxycyclopropanecarbonyl)ureido)pyridin-3-yl)oxy)pyridin-2-yl)-1-methylpiperidine-4-carboxamide] | 10 to 100 | > 1000 | > 1000 | > 1000 | 100 to 1000 |
| CC(=O)Nc1cc(Oc2ccc(NC(=O)NC(=O)C(C)C)nc2C)ccn1 [Example 10, N-((5-((2-acetamidopyridin-4-yl)oxy)-6-methylpyridin-2-yl)carbamoyl)isobutyramide] | 10 to 100 | > 1000 | 100 to 1000 | 10 to 100 | 10 to 100 |
| CC(C)(C)C(=O)NC(=O)Nc1ccc(Oc2ccnc(C(=O)NC3CC3)c2)cn1 [Example 74, N-cyclopropyl-4-((6-(3-pivaloylureido)pyridin-3-yl)oxy)picolinamide] | 10 to 100 | > 1000 | > 1000 | 100 to 1000 | 10 to 100 |
| CC(C)(C)C(=O)NC(=O)Nc1ccc(Oc2ccnc(NC(=O)CN3CCCC3)c2)cn1 [Example 53, N-((5-((2-(2-(pyrrolidin-1-yl)acetamido)pyridin-4-yl)oxy)pyridin-2-yl)carbamoyl)pivalamide] | 10 to 100 | > 1000 | > 1000 | > 1000 | 10 to 100 |
| CC(=O)Nc1cc(Oc2ccc(NC(=O)NC(=O)C(C)C)nc2)ccn1 [Example 15, N-((5-((2-acetamidopyridin-4-yl)oxy)pyridin-2-yl)carbamoyl)isobutyramide] | 10 to 100 | > 1000 | 100 to 1000 | 10 to 100 | 10 to 100 |
| CNC(=O)c1cc(Oc2ccc(NC(=O)NC(=O)C3(C(F)(F)F)CCC3)nc2)ccn1 [Example 72, N-methyl-4-((6-(3-(1-(trifluoromethyl)cyclobutanecarbonyl)ureido)pyridin-3-yl)oxy)picolinamide] | 10 to 100 | > 1000 | > 1000 | 100 to 1000 | 10 to 100 |
| CC(C)(C)C(=O)NC(=O)Nc1ccc(Oc2ccnc(NC(=O)N3CCCC3)c2)cn1 [Example 78, N-(4-((6-(3-pivaloylureido)pyridin-3-yl)oxy)pyridin-2-yl)pyrrolidine-1-carboxamide] | < 10 | 10 to 100 | 10 to 100 | < 10 | < 10 |
| CC(=O)Nc1cc(Oc2ccc(NC(=O)NC(=O)C3CCCCC3)nc2)ccn1 [Example 1, N-((5-((2-acetamidopyridin-4-yl)oxy)pyridin-2-yl)carbamoyl)cyclohexanecarboxamide] | 10 to 100 | 100 to 1000 | – | < 10 | < 10 |
